{
  "source": "paper PMC11456916",
  "about": "“A screen for cell envelope stress uncovers an inhibitor of prolipoprotein diacylglyceryl transferase, Lgt, in Escherichiacoli” (iScience, 2024)",
  "key": {"[1]": {"test_system": "356 CRISPRi constructs in E. coli ΔtolC-pore", "experiment": "CRISPRi collection fitness screen with sub-inhibitory compound", "type": "cell-based", "conditions": "for Growth, mean colony biomass (n=4): +250 ng/ml Vancomycin", "text": "To that end, we screened the E. coli CRISPRi collection in the ΔtolC-pore genetic background with a sub-inhibitory concentration of MAC-0452936 and measured the fitness of all 356 CRISPRi mutants (Figure 4C and Data S4). […] To that end, we introduced either an arabinose inducible copy of lgt supplied on the pCHAP9231 plasmid[48] or the pBAD19s plasmid as a control into E. coli ΔtolC-pore and tested the potency of MAC-0452936 (Figure 4E). […] To test this hypothesis, we constructed E. coli ΔlgtΔtolC-pore with pCHAP9231[48] so that lgt expression was driven solely by arabinose from the plasmid.\nFor screens of the CRISPRi collection with MAC-0452936, the mobile CRISPRi collection was first conjugated into E. coli ΔtolC-pore as previously described.[30] The CRISPRi collection was then arrayed on solid agar at 1536 density using the Singer-ROTOR, such that each CRISPRi strain is arrayed in technical quadruplicate. […] The screens were conducted without CRISPRi induction, using just the 5–10% basal knockdown from the pFD152 CRISPRi plasmid. Following overnight growth, plates were imaged using high-resolution scanners (Epson Perfection v750), and colony biomass for each mutant was determined."}, "[2]": {"test_system": "E. coli ΔtolC-pore harboring CRISPRi plasmids targeting lgt", "experiment": "CRISPRi lgt knockdown MIC (low-copy enhancement)", "type": "cell-based", "conditions": "two gRNAs targeting lgt, 100 ng/mL aTc", "text": "We next turned to genetic approaches to confirm the mechanism of action of MAC-0452936. […] To that end, we screened the E. coli CRISPRi collection in the ΔtolC-pore genetic background with a sub-inhibitory concentration of MAC-0452936 and measured the fitness of all 356 CRISPRi mutants (Figure 4C and Data S4). […] Depletion of Lgt by CRISPRi provided supporting evidence that MAC-0452936 targeted Lgt in E. coli; however, we sought to confirm this observation using a parallel genetic approach. We hypothesized that MAC-0452936 potency would also be affected by high-copy expression of lgt. To that end, we introduced either an arabinose inducible copy of lgt supplied on the pCHAP9231 plasmid[48] or the pBAD19s plasmid as a control into E. coli ΔtolC-pore and tested the potency of MAC-0452936 (Figure 4E). Induction of lgt expression with arabinose suppressed the activity of MAC-0452936 by about 8-fold. […] To test this hypothesis, we constructed E. coli ΔlgtΔtolC-pore with pCHAP9231[48] so that lgt expression was driven solely by arabinose from the plasmid. […] To test this observation with MAC-0452936, we introduced an lpp deletion into our screening strain E. coli ΔtolC-pore and assessed the activity of our Lgt inhibitor in this mutant background. […]"}},
  "data": [
    {"compound": "CN[C@H](CC(C)C)C(=O)N[C@H]1C(=O)N[C@@H](CC(N)=O)C(=O)N[C@H]2C(=O)N[C@H]3C(=O)N[C@H](C(=O)N[C@H](C(=O)O)c4cc(O)cc(O)c4-c4cc3ccc4O)[C@H](O)c3ccc(c(Cl)c3)Oc3cc2cc(c3O[C@@H]2O[C@H](CO)[C@@H](O)[C@H](O)[C@H]2O[C@H]2C[C@](C)(N)[C@H](O)[C@H](C)O2)Oc2ccc(cc2Cl)[C@H]1O", "note": "[Vancomycin]", "values": [
      {"measurement": "Growth, mean colony biomass (n=4)", "setting": "[1]; gRNA asnS", "value": 0.957},
      {"measurement": "Growth represented as mean colony biomass", "setting": "[1]; gRNA cdsA, 1μg/ml MAC0452936, 6ng/ml LolCDE-in-1, 250 ng/ml Vancomycin, 7 ng/ml CHIR090, n=4", "value": 1.2659},
      {"measurement": "Growth, mean colony biomass (n=4)", "setting": "[1]; gRNA csrA", "value": 0.9477},
      {"measurement": "Growth, mean colony biomass (n=4)", "setting": "[1]; gRNA dnaC", "value": 1.003},
      {"measurement": "Growth, mean colony biomass (n=4)", "setting": "[1]; gRNA dut", "value": 1.0326},
      {"measurement": "Growth, mean colony biomass (n=4)", "setting": "[1]; gRNA folA", "value": 1.027},
      {"measurement": "Growth, mean colony biomass (n=4)", "setting": "[1]; gRNA folC", "value": 1.033},
      {"measurement": "Growth, mean colony biomass (n=4)", "setting": "[1]; gRNA ftsA", "value": 0.9398},
      {"measurement": "Growth, mean colony biomass (n=4)", "setting": "[1]; gRNA glmS", "value": 1.002},
      {"measurement": "Growth, mean colony biomass (n=4)", "setting": "[1]; gRNA hemD", "value": 1.042},
      {"measurement": "Growth, mean colony biomass (n=4)", "setting": "[1]; gRNA lexA", "value": 1.232},
      {"measurement": "Growth, mean colony biomass (n=4)", "setting": "[1]; gRNA mnmA", "value": 1.044},
      {"measurement": "Growth, mean colony biomass (n=4)", "setting": "[1]; gRNA msbA", "value": 1.015},
      {"measurement": "Growth, mean colony biomass (n=4)", "setting": "[1]; gRNA mukF", "value": 1.002},
      {"measurement": "Growth, mean colony biomass (n=4)", "setting": "[1]; gRNA nadK", "value": 0.9893},
      {"measurement": "Growth, mean colony biomass (n=4)", "setting": "[1]; gRNA prmC", "value": 1.009},
      {"measurement": "Growth, mean colony biomass (n=4)", "setting": "[1]; gRNA pssA", "value": 0.9581},
      {"measurement": "Growth, mean colony biomass (n=4)", "setting": "[1]; gRNA ptsI", "value": 1.038},
      {"measurement": "Growth, mean colony biomass (n=4)", "setting": "[1]; gRNA ribD", "value": 1.045},
      {"measurement": "Growth, mean colony biomass (n=4)", "setting": "[1]; gRNA rne", "value": 1.0315},
      {"measurement": "Growth, mean colony biomass (n=4)", "setting": "[1]; gRNA rplA", "value": 0.9936},
      {"measurement": "Growth, mean colony biomass (n=4)", "setting": "[1]; gRNA rplX", "value": 1.03},
      {"measurement": "Growth, mean colony biomass (n=4)", "setting": "[1]; gRNA rpmC", "value": 1.003},
      {"measurement": "Growth, mean colony biomass (n=4)", "setting": "[1]; gRNA rpoE", "value": 1.036},
      {"measurement": "Growth, mean colony biomass (n=4)", "setting": "[1]; gRNA rpsG", "value": 1.014},
      {"measurement": "Growth, mean colony biomass (n=4)", "setting": "[1]; gRNA rpsK", "value": 0.9986},
      {"measurement": "Growth, mean colony biomass (n=4)", "setting": "[1]; gRNA rpsR", "value": 0.9771},
      {"measurement": "Growth, mean colony biomass (n=4)", "setting": "[1]; gRNA rpsT", "value": 1.039},
      {"measurement": "Growth, mean colony biomass (n=4)", "setting": "[1]; gRNA suhB", "value": 0.9724},
      {"measurement": "Growth, mean colony biomass (n=4)", "setting": "[1]; gRNA tsaE", "value": 0.9903},
      {"measurement": "Growth, mean colony biomass (n=4)", "setting": "[1]; gRNA ygeN", "value": 0.9481},
      {"measurement": "Growth, mean colony biomass (n=4)", "setting": "[1]; gRNA yqeL", "value": 1.455},
      {"measurement": "Growth, mean colony biomass (n=4)", "setting": "[1]; gRNA zipA", "value": 1.731},
      {"measurement": "growth defect of the lgt CRISPRi mutant in the presence of compound", "setting": "[1]; sub-inhibitory (¼ MIC) concentration, LB agar, basal knockdown", "value": "did not demonstrate a growth defect"},
      {"measurement": "sensitization upon depletion of Lgt with CRISPRi constructs", "setting": "[2]", "value": "not to either of the negative control antibiotics"}
    ]}
  ]
}
